Assay results: US10822317B2, “Methods and compositions for wound healing” (QBiotics Limited, priority 2013, dated 2020)

How the values were obtained:
[1] = system: human peripheral blood mononuclear cells (PBMCs); assay: Cytokine production by PBMCs (Cytometric Bead Array); assay type: cell-based; settings: 24 hr, ± standard deviation
From the text: Specific cytokines play critical roles in wound healing processes, and agents that modulate these substances may be useful in treating wounds and/or improving the cosmetic outcomes of healing (e.g. reduced scarring). The effects of Compounds 1, 2, 5 and 42 on regulation of four cytokines (IL-1β, IL-6, IL-8 and TNFα) known to be critical in early stages of the wound healing process were investigated in human peripheral blood mononuclear cells (PBMCs).
PBMCs were isolated by Ficoll-Paque sedimentation of heparinised blood acquired from both a person (Donor 1) and (Donor 2) human donor. All cells were cultured in 10% FCS, RPMI as detailed previously.
PBMCs were seeded at a density of 1.5×10^5 cells per well in 10% FCS, RPMI. Stimulation of these cells with the four compounds was performed at four concentrations (0 ng/mL, 3 ng/mL, 30 ng/mL, 300 ng/mL) in duplicate for 24 h in a humidified incubator at 37° C., 5% CO2. Media samples were taken from each of the required wells and frozen at −80° C. until use.
Cytometric Bead Array (CBA) assays were used to measure the results. CBA assays provide a method for capturing a soluble analyte or set of analytes using antibody coated beads of known sizes and fluorescence. Detection is then performed using another fluorescently labelled secondary antibody to form a sandwich complex. Each media sample was assayed for the presence of soluble […], IL-6, IL-8, IL-10, IL-12p70 and TNFα using a BD (Becton Dickinson) CBA Human Inflammatory Cytokine Detection Kit according to manufacturers' instructions. Mean fluorescence intensity values from each sample were compared against a standard curve to determine cytokine concentrations (pg/mL).

mouse skin = assay: Acute inflammatory response in mouse skin; assay type: in vivo; settings: male nude mice, s.c. 50 μL of 100 μg/mL; for scarring of the healed site: 14 days; for diameter of affected area of skin: by 24 hr
Procedure: Male nude mice were injected subcutaneously on each flank with 50 μL of solutions of 100 μg/mL of Compounds 1, 2, 5 and 42 respectively in 20% propylene glycol. Each site reddened within 4 hr and by 24 hr the affected area covered approximately 1 cm diameter of skin.

[2] = system: human neonatal fibroblasts; assay: Matrigel invasion assay for migratory ability; assay type: cell-based; settings: for Cell count as % of control (Control = no compounds added): 30 ng/mL, 24 hrs, fibroblasts starved 2 days, 1% foetal calf serum, ± standard deviation, two replicate experiments
From the text: Matrigel invasion chambers provide cells with the conditions that allow assessment of their invasive property in vitro. The Matrigel invasion chambers consists of a cell culture companion plate with cell culture inserts containing an 8 micron pore size PET membrane with a thin layer of Matrigel Basement Membrane Matrix. The Matrigel matrix serves as a reconstituted basement membrane in vitro. The layer occludes the pores of the membrane, blocking non-invasive cells from migrating through the membrane. In contrast, invasive cells are able to detach themselves from and invade through the Matrigel matrix and the 8 micron membrane pores. The membrane may be processed for light and electron microscopy and can be easily removed after staining.
The chambers were used according to the manufacturer's instructions, as described below in two studies, to assess the effects of Compounds 1, 2, 5 and 42 on migration of human neonatal fibroblasts. The first study assessed effects of three concentrations (0, 10 and 30 ng/mL) of Compound 1 on neonatal fibroblasts in wells containing media with 10% foetal calf serum. The second study used two concentrations (0 and 30 ng/mL) for each of Compounds 1, 2, 5 and 42 to examine effects on migration of neonatal fibroblasts starved for 2 days prior to treatment and then transferred to media with 1% foetal calf serum.
The package containing the chambers was removed from −20° C. storage and allowed to come to room temperature. Warm (37° C.) bicarbonate based culture medium was added to the interior of the inserts (500 μL) and bottom of wells (750 μL). The chambers containing the Matrigel were allowed to rehydrate for 2 hours in humidified tissue culture incubator, 37° C., 5% CO2 atmosphere. After rehydration, the medium was carefully removed by aspiration without disturbing the layer of Matrigel™ Matrix on the membrane.
Cells were harvested, and resuspended at 20,000 cells per mL. A total of 250 μL of the cell suspension was placed into the interior of the insert (5,000 cells). An extra 250 μL media containing the respective Compounds was then added to the interior of the insert to give the desired final concentrations for each of the two studies. A total of 750 μL of media containing appropriate concentrations of each compound in each treatment were placed in the well under the appropriate insert. The Matrigel chambers were then incubated for 24 hours in a humidified tissue culture incubator, at 37° C., 5% CO2 atmosphere.
Non-invading cells were removed from the upper surface of the membrane by “scrubbing”. A cotton tipped swab was dipped into the insert after removal of the media, and firm pressure applied while the tip was moved over the membrane surface. The scrubbing was repeated with a second swab moistened with PBS. Cells that had invaded to the external surface of the insert were then fixed by placing in […] of 100% methanol for at least 5 mins. Inserts were then transferred to a companion plate containing 500 μL of 0.1% crystal violet in methanol, and stained for at least 15 mins. Inserts were destained by passage through 3 companion plates containing 500 μL water, before being air dried.
The following day, the membrane was removed from the insert housing by inverting the insert and inserting the tip of a sharp scalpel blade through the membrane at the edge adjacent to the housing wall. The insert housing was rotated against the stationary blade and the membrane was released. […]

[3] = system: human neonatal fibroblasts; assay: Scratch closure, human neonatal fibroblasts, Method 3 (IncuCyte); assay type: cell-based
Procedure: The ability of early. passage neonatal foreskin fibroblasts (NFF) cultured in RPMI 1640-10% foetal calf serum to migrate across a scratch wound made in a confluent monolayer following treatment with purified compounds or plant extracts was determined using one or more of the following three methods.
Cells were seeded and treated in 96-well plates as in Method 2 (5 replicate wells per dilution), except that the scratches were made in one action with a tool having 96, 1 mm thick teflon coated pins (Essen Bioscience Woundmaker). The plate was then placed in a 37° C., 5% CO2 humidified atmosphere in an IncuCyte FLR instrument programmed to photograph each well under phase contrast at 3 hr intervals for 42 hours. The software determined the initial scratch boundaries and their rate of closure. Accelerated wound closure was considered to be significant if the initial rate of closure was >10% of the untreated controls.

## CC=C(C)C(=O)OC1C(C)C2(O)C(C3OC3(CO)C(O)C3(O)C(=O)C(C)=CC32)C2C(C)(C)C12OC(=O)C(C)CC (stereo not shown) [Compound 1, 12-tigloyl-13-(2-methylbutanoyl)-6,7-epoxy-4,5,9,12,13,20-hexahydroxy-1-tigliaen-3-one]
[1]; Donor 1, 3 ng/mL
  IL-1β level: 1.2 ± 0.2 pg/mL
  IL-6 level: 9.7 ± 1.2 pg/mL
  IL-8 level: 1720 ± 157 pg/mL
  TNFα level: 24.3 ± 1.4 pg/mL
[1]; Donor 1, 30 ng/mL
  IL-1β level: 11.9 ± 0.8 pg/mL
  IL-6 level: 34.2 ± 1.1 pg/mL
  IL-8 level: 16920 ± 1198 pg/mL
  TNFα level: 324.4 ± 0.0 pg/mL
[1]; Donor 1, 300 ng/mL
  IL-1β level: 39 ± 0.2 pg/mL
  IL-6 level: 89.5 ± 13.8 pg/mL
  IL-8 level: 16419 ± 40 pg/mL
  TNFα level: 355.0 ± 4.3 pg/mL
[1]; Donor 2, 3 ng/mL
  IL-1β level: 3.1 ± 0.9 pg/mL
  IL-6 level: 8.3 ± 0.4 pg/mL
  IL-8 level: 1493 ± 2 pg/mL
  TNFα level: 11.2 ± 0.3 pg/mL
[1]; Donor 2, 30 ng/mL
  IL-1β level: 43.9 ± 1.7 pg/mL
  IL-6 level: 12.6 ± 0.9 pg/mL
  IL-8 level: 24078 ± 815 pg/mL
  TNFα level: 209.6 ± 7.5 pg/mL
[1]; Donor 2, 300 ng/mL
  IL-1β level: 121.6 ± 5.6 pg/mL
  IL-6 level: 38.8 ± 9.0 pg/mL
  IL-8 level: 32021 ± 1156 pg/mL
  TNFα level: 592.2 ± 24.7 pg/mL
Mouse skin
  scarring of the healed site: minimal scarring
  diameter of affected area of skin: approximately 1 cm
[2]
  Cell count as % of control (Control = no compounds added): 356 ± 141%
[2]; first study, 10 or 30 ng/mL, 10% foetal calf serum, 24 hours
  migratory ability in the Matrigel invasion chamber system vs vehicle alone: increased migratory ability
[3]; 30 ng/mL
  % closure compared to control: 150%
[3]; 100 ng/mL
  % closure compared to control: 160%

## CCC(C)C(=O)OC1C(C)C2(O)C(C3OC3(CO)C(O)C3(O)C(=O)C(C)=CC32)C2C(C)(C)C12OC(=O)C(C)CC (stereo not shown) [Compound 2, 12,13-di-(2-methylbutanoyl)-6,7-epoxy-4,5,9,12,13,20-hexahydroxy-1-tigliaen-3-one]
[1]; Donor 1, 3 ng/mL
  IL-1β level: 1.4 ± 1.2 pg/mL
  IL-6 level: 9.1 ± 0.2 pg/mL
  IL-8 level: 2099 ± 585 pg/mL
  TNFα level: 31.15 ± 6.9 pg/mL
[1]; Donor 1, 30 ng/mL
  IL-1β level: 1.21 ± 0.4 pg/mL
  IL-6 level: 38 ± 3.9 pg/mL
  IL-8 level: 18229 ± 2592 pg/mL
  TNFα level: 314.07 ± 37.9 pg/mL
[1]; Donor 1, 300 ng/mL
  IL-1β level: 37.7 ± 4.6 pg/mL
  IL-6 level: 84.1 ± 3.6 pg/mL
  IL-8 level: 16634 ± 625 pg/mL
  TNFα level: 330.0 ± 28.7 pg/mL
[1]; Donor 2, 3 ng/mL
  IL-1β level: 6.7 ± 1.5 pg/mL
  IL-6 level: 14.9 ± 1.1 pg/mL
  IL-8 level: 2608 ± 309 pg/mL
  TNFα level: 27.3 ± 8.3 pg/mL
[1]; Donor 2, 30 ng/mL
  IL-1β level: 52.6 ± 5.0 pg/mL
  IL-6 level: 14.5 ± 3.3 pg/mL
  IL-8 level: 26401 ± 271 pg/mL
  TNFα level: 211.5 ± 12.4 pg/mL
[1]; Donor 2, 300 ng/mL
  IL-1β level: 123.9 ± 1.0 pg/mL
  IL-6 level: 41.4 ± 2.3 pg/mL
  IL-8 level: 34117 ± 630 pg/mL
  TNFα level: 618.1 ± 63.7 pg/mL
Mouse skin
  scarring of the healed site: minimal scarring
  diameter of affected area of skin: approximately 1 cm
[2]
  Cell count as % of control (Control = no compounds added): 366 ± 122%
[3]; 30 ng/mL
  % closure compared to control: 147%
